Test results: patent US20200291018A1, “TAM KINASE INHIBITORS” (SYROS PHARMACEUTICALS, INC., priority 2017, published 2020)

Experiments:
TYRO3 = target: T1, TYRO3 (Homo sapiens, UniProt Q06418); experiment: TR-FRET kinase activity assay, TYRO3; type: biochemical; details: ATP at Km, 60 minutes
T1 sequence (Q06418 41-890): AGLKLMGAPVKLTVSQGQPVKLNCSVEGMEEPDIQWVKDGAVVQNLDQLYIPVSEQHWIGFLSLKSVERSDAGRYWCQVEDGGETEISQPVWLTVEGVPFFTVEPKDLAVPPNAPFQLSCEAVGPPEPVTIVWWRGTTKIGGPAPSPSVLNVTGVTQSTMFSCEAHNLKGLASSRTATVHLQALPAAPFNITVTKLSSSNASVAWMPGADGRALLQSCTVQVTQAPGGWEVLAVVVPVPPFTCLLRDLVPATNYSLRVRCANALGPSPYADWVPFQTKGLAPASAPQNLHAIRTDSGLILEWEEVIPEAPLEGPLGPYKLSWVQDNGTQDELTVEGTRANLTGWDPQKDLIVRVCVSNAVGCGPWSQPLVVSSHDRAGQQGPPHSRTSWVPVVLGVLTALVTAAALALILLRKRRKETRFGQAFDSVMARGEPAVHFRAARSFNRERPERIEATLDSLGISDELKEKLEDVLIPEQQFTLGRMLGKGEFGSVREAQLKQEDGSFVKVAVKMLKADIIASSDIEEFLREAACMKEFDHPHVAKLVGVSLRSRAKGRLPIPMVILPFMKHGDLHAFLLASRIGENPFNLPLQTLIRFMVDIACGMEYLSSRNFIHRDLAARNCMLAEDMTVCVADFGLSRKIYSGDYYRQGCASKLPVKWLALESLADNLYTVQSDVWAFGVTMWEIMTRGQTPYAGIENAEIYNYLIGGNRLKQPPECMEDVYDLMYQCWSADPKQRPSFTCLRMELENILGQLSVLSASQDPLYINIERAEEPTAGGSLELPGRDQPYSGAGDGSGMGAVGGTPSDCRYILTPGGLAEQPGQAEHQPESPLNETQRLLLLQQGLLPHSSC
Method: (§1) IC50 values for compound inhibition of AXL, FLT3, MERTK and TYRO3 activity were determined using a TR-FRET activity assay. A peptide substrate with a fluorescent label is phosphorylated on a tyrosine by each enzyme, where the now phosphorylated product is bound by a Europium-labeled antibody specific to that phosphorylation site. The proximity between the antibody and the substrate gives a signal known as TR-FRET. As the enzyme is inhibited by compound, less phosphorylated peptide product is made, causing a decrease in overall signal.
(§2) Activity assays were performed in a 384-well, small volume, black microplates in an active enzyme volume of 10 uL and final developed volume of 20 uL. Final assay conditions are 50 mM HEPES pH 7.5, 10 mM MgCl2, 1 mM EGTA, 0.01% Brij 35 and 1 mM DTT, all at RT. Enzyme, substrate-labeled peptide and compound are mixed, and then the reaction is initiated with the addition of ATP at Km concentration for each enzyme. The reaction is allowed to run 60 minutes and then quenched with a 12.5 mM EDTA (ethylenediamine tetraacetic acid) solution. The plate is then developed with the addition of Europium-labeled antibody for a final volume of 20 uL and is then incubated for 30 minutes in darkness. Plates are read in a PHERASTAR® plate reader. Data are analyzed in GraphPad PRISM.

FLT3 = target: T2, FLT3 (Homo sapiens, UniProt P36888); experiment: TR-FRET kinase activity assay, FLT3; type: biochemical; details: ATP at Km, 60 minutes
T2 sequence (P36888 27-993): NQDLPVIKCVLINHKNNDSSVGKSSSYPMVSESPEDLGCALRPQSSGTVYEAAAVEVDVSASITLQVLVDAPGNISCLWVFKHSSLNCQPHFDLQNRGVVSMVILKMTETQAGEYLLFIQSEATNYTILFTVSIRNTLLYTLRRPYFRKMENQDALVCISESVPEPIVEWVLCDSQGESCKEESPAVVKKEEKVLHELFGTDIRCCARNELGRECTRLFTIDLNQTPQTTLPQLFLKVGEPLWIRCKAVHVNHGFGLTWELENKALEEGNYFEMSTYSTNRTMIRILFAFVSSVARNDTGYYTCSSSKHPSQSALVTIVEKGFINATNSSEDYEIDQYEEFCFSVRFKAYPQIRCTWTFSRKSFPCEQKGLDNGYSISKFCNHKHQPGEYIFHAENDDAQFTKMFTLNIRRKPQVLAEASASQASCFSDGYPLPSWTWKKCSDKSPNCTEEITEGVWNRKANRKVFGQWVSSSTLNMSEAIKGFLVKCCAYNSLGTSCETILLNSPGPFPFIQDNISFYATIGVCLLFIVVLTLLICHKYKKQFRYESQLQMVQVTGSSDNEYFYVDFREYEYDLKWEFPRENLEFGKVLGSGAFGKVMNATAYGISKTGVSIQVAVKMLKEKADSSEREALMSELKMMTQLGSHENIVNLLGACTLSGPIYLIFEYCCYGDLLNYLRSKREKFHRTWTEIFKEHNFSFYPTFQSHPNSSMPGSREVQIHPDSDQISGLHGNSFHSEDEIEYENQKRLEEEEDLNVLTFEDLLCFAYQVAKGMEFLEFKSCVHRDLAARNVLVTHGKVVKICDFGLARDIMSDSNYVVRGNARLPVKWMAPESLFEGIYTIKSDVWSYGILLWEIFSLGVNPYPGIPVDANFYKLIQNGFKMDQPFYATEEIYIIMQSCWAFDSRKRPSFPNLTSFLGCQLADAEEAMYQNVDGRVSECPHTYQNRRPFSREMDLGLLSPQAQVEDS
Method: as §1, §2

IC50 (TYRO3) [nM] | IC50 (FLT3) [nM] | Compound
≤ 100 | 1000 to 10000 | CC[C@H](C)Nc1ncc2c(C)ncc([C@H]3CC[C@H](O)CC3)c2n1 [Compound 255]
100 to 1000 | 1000 to 10000 | CC[C@H](C)Nc1ncc2c(OCC34CCC(O)(CC3)CC4)ncc([C@H]3CC[C@H](O)CC3)c2n1 [Compound 256]
≤ 100 | 1000 to 10000 | CC[C@H](C)Nc1ncc2c(=O)n(CC34CCC(O)(CC3)CC4)cc([C@H]3CC[C@H](O)CC3)c2n1 [Compound 257]
≤ 100 | 1000 to 10000 | COC[C@H](C)Nc1ncc2c(OC3CC(C)(C)N(C)C(C)(C)C3)ncc([C@H]3CC[C@H](O)CC3)c2n1 [Compound 259]
≤ 100 | 1000 to 10000 | COC[C@H](C)Nc1ncc2c(O[C@H]3CC[C@H](O)CC3)ncc([C@H]3CC[C@H](O)CC3)c2n1 [Compound 260]
100 to 1000 | 100 to 1000 | CC[C@H](C)Nc1ncc2c(O[C@H]3CC[C@H](C(C)(C)O)CC3)ncc([C@H]3CC[C@H](O)CC3)c2n1 [Compound 261]
≤ 100 | 100 to 1000 | O[C@H]1CC[C@H](c2cnc(OC3CCNCC3)c3cnc(Nc4ccccc4F)nc32)CC1 [Compound 262]
100 to 1000 | 1000 to 10000 | CC[C@H](C)Nc1ncc2c(=O)n(C[C@@H]3COCCN3C)cc([C@H]3CC[C@H](O)CC3)c2n1 [Compound 263]
≤ 100 | 1000 to 10000 | CC[C@H](C)Nc1ncc2c(=O)n(CC34CCC(N(C)C)(CC3)CC4)cc([C@H]3CC[C@H](O)CC3)c2n1 [Compound 264]
100 to 1000 | 1000 to 10000 | CC[C@H](C)Nc1ncc2c(=O)n(C[C@H]3COCCN3C)cc([C@H]3CC[C@H](O)CC3)c2n1 [Compound 265]
≤ 100 | 1000 to 10000 | CC[C@H](C)Nc1ncc2c(=O)n([C@H]3CC[C@H](N(C)C)C3)cc([C@H]3CC[C@H](O)CC3)c2n1 [Compound 266]
≤ 100 | 100 to 1000 | CC[C@H](C)Nc1ncc2c(O[C@H]3CC[C@H](N(C)C)C3)ncc([C@H]3CC[C@H](O)CC3)c2n1 [Compound 267]
100 to 1000 | 1000 to 10000 | CC(C)(C)Nc1ncc2c(OC3CCNCC3)ncc([C@H]3CC[C@H](O)CC3)c2n1 [Compound 268]
≤ 100 | ≤ 100 | O[C@H]1CC[C@H](c2cnc(OC3CCNCC3)c3cnc(Nc4ccc(F)cc4)nc32)CC1 [Compound 269]
≤ 100 | ≤ 100 | O[C@H]1CC[C@H](c2cnc(OC3CCNCC3)c3cnc(Nc4cccc(F)c4)nc32)CC1 [Compound 270]
100 to 1000 | 1000 to 10000 | CC[C@H](C)Nc1ncc2c(=O)n(-c3ccc(N)cc3)cc([C@H]3CC[C@H](O)CC3)c2n1 [Compound 271]
≤ 100 | 100 to 1000 | COC(=O)c1ccc(Nc2ncc3c(OC4CCNCC4)ncc([C@H]4CC[C@H](O)CC4)c3n2)cc1 [Compound 272]
100 to 1000 | 1000 to 10000 | CCOc1ncc([C@H]2CC[C@H](O)CC2)c2nc(N[C@@H](C)COC)ncc12 [Compound 273]
100 to 1000 | 1000 to 10000 | CC(C)Nc1ncc2c(OC3CCOCC3)ncc(-c3cccc(CC#N)c3)c2n1 [Compound 274]
100 to 1000 | 1000 to 10000 | CC[C@H](C)Nc1ncc2c(OC3C[C@@H](C)O[C@@H](C)C3)ncc([C@H]3CC[C@H](O)CC3)c2n1 (stereo partly shown) [Compound 275]
